Tests used:
[1] = test system: CLP-induced polymicrobial sepsis; experiment: Murine cecal ligation and puncture (CLP) model of polymicrobial sepsis; assay type: in vivo, BALB/c mice; conditions: score 0 normal to 4 marked diffuse inflammation and damage; oral dosing from time of CLP; euthanized at 48 hours; 8 animals; p<0.001 vs vehicle 3.08±0.74
Method: Murine cecal ligation and puncture is an accepted model of sepsis and was performed according to a previously published protocol [Opal et al., “evaluation of the safety of recombinant P-selectin glycoprotein ligand-immunoglobulin G fusion protein in experimental models of localized and systemic infection,” Shock 2001;15:285-90]. […] Acute lung injury is a documented component of this peritonitis-induced sepsis, and the model has been used to study the effects of other pharmaceutical agents on acute lung injury in sepsis [Tsujimoto et al. Shock 2005;23:39-44; and Singleton et al. Am J Physiol Regul Integr Comp Physiol (Jan. 18, 2007)].
Mice were euthanized at 48 hours following CLP and treatment with vehicle or Compound 1, both treatments having begun at the time of CLP.
Compound 1 was given at a range of doses orally at time 0, 24 and 48 hours following CLP in male and female BALB/c mice Survival, inflammatory markers, lung histopathology, and microbiologic parameters were assessed.
Multiple lung specimens were taken at necropsy from 8 vehicle- and 8 Compound 1—treated animals and evaluated by an independent pathologist unaware of the treatment group assignments. Treatment with Compound 1 reduced lung lesions (such as lung edema and lung inflammation) comparing to that with vehicle (Compound 1: 1.0±0.76 vs. vehicle: 3.08±0.74, p<0.001). […]

[2] = test system: lung tissue gene expression; experiment: Lung tissue gene expression in the mCLP model (Affymetrix array, Ingenuity Pathways Analysis); assay type: in vivo; conditions: mice subjected to CLP, intravenous treatment at CLP induction, lung tissue at 48 hours
Method: In order to further define the activity of Compound 1 in murine CLP, satellite groups of mice were treated intravenously at the time of CLP induction surgery with vehicle or Compound 1. An additional group of mice(surgical sham group) were subjected to the anesthesia and laparotomy, the cecum was manipulated but not ligated, and then the abdomen was closed. Because mCLP produces a progressive sepsis state, the animals become extremely ill and begin to succumb between 48-72 hours after mCLP. Thus, these animals were euthanized at 48 hours and lung tissue samples collected for gene expression analysis.
Messenger RNA was prepared by standard techniques, and the samples were processed on the Mouse430—2 Affymetrix commercial array, containing 45,037 non-control probe sets.
A heat map of differential gene expression was used to detect those gene transcripts with gene expression decreasing and those gene transcripts with gene expression increasing.
Using Ingenuity Pathways Analysis (IPA), 277 of the 522 probe sets were eligible for generating pathways. […] These pathways are identified in Table 4.

E. coli = experiment: Intravenous E. coli challenge model of sepsis in baboons; assay type: in vivo; conditions: 10 mg/kg intravenously
Method: The intravenous E. coli infusion model of sepsis in baboons has been used for many years in sepsis research [Taylor F B Crit Care Med 2001 ;29:S78-89], and it has acute lung injury as one of its pathophysiological features [Sabharwal A K et al. Am J Resp Crit Care 1995; 151:758-67].
Compound 1 was given at a range of doses […] intravenously at a dose of 10 mg/kg in baboons 5 minutes before and then at 2, 24, 48, 72 and 96 hours following E. coli challenge. Survival, inflammatory markers, lung histopathology, and microbiologic parameters were assessed.
In the baboon study the lungs were examined at euthanasia of the animals when moribund or at the end of the 7 day experiment. Animals were assigned to vehicle and Compound 1 E. coli challenge. The lung specimens were evaluated by an independent pathologist unaware of treatment group assignments.

[3] = test system: peripheral blood mononuclear cells (PBMC) gene transcripts and plasma chemokines; experiment: Plasma proteome and PBMC gene transcription in the IV live E. coli challenge model in baboon; assay type: in vivo
Method: The plasma proteome and gene transcription of peripheral blood mononuclear cells (PBMC) were investigated using the baboon model of sepsis to evaluate the effect of Compound 1 on progression of the disease. The study comprised three treatment groups—sham-treated, vehicle, and Compound 1—of three baboons each. Blood samples were drawn at multiple time points (0, 0.5, 1, 2, 3, 4, 6, 24, 48, and 168 hours) from each baboon. NuGen amplified RNA was prepared from peripheral blood mononuclear cells (PBMC) isolated from the 0, 1, 6, and 24 hour blood samples. RNA levels were then measured using Affymetrix rhesus monkey Genechips, which interrogated 52,865 transcripts. Of interest was whether expression levels of one or more of these transcripts differed among the three treatment groups over the course of the study.
Genechip data were processed using Affymetrix MAS 5 software to calculate detection p-values and signal (expression) values. Detection p-values were used to generate Affymetrix Absent, Marginal, or Present calls (p-value≧0.065: Absent; 0.05≦p-value<0.065: Marginal; p-value<0.05: Present). Signal values were normalized by the standard MAS 5 procedure.
This filter reduced the number of transcripts for further analysis to 43,181.
To adjust for differences among animals in baseline expression values, change from baseline expression was analyzed. Change from baseline expression values were calculated using log2-transformed signal values. For each transcript, the log2 signal value for an animal at the 0 hour (baseline) sampling time was subtracted from the log2 signal value for the same animal for each later sampling time to yield change from baseline values for 1, 6, and 24 hours for that animal.
Repeated-measures analysis of variance (ANOVA) was used to compare (log2-transformed) change from baseline expression values in the treatment groups across the sampling time points. The ANOVA model included terms for treatment group and sampling time, and a term for the interaction between treatment group and time. The model also included a compound symmetry covariance parameter to account for any within-animal correlation between measurements at different sampling times from the same animal. Separate ANOVAs were run for each transcript. Pairwise comparisons between treatment groups were computed for mean concentrations across all times as well as for each time point separated. These pairwise comparisons were based on two-sided t-tests, with the error term for the t-tests based on the overall error term from the ANOVA.
Due to the substantial number of statistical tests performed, false discovery rates (FDRs) were used to adjust the raw p-values from F-tests and t-tests for multiple comparisons. The FDRs were computed to control the family-wise error level by calculating FDRs across transcripts separately for each set of comparisons (e.g., each pairwise comparison at a particular sampling time).

S. pneumoniae = experiment: Murine pneumonia model (invasive pneumococcal pneumonia); assay type: in vivo; conditions: 3 mg/kg IV at 24 and 48 hours after S. pneumoniae LD90 inoculation; moxifloxacin at 6, 24, 48 hours; all vehicle animals succumbed by 80 hours
Method: The effects of Compound 1 and Compound 2[2-(3-fluoro-4-hydroxyphenyl)-7-vinyl-1,3-benzoxazol-5-ol, or ERB-041] initially dosed at 3 mg/kg IV were being assessed on 7-day survival, microbial clearance and attenuation the acute and chronic pro-inflammatory effects of invasive pneumococcal pneumonia in lung tissue and distant organs in the murine pneumonia model. [Mohler J et al. Intensive Care Med 2003; 29:808-816.] Compound 1 and Compound 2 were tested to determine their ability to modulate the pathophysiology of severe infection and mortality from local and systemic inflammation from severe bacterial pneumonia. The compounds were delivered IV at 24 and 48 hours after inoculation with S. pneumoniae at an LD90 dose. Moxifloxacin was given at 6, 24 and 48 hours. The animals became bacteremic and develop a lethal pulmonary and systemic infection between 48 and 72 hours after the primary inoculation. All of the vehicle treated animals succumbed by 80 hours (3 days and 8 hours), while at 7 days 20% of the Compound 1—treated animals were alive and 60% of the Compound 2—treated animals survived.

[4] = baboon plasma after E coli challenge
[5] = by 24 hours after E coli infusion, compared to vehicle treated animals

N#Cc1cc(-c2ccc(O)c(F)c2)cc2ccc(O)cc12 [Compound 1, 3-(3-fluoro-4-hydroxy-phenyl)-7-hydroxy-naphthalene-1-carbonitrile]
lung lesions (lung edema and lung inflammation) histopathology score [1]: 1.0±0.76 | proinflammatory pathways (gene transcripts) in the lungs [2]: significantly decreased | clinical signs of pulmonary injury (percent change in respiratory rate from baseline) (E. coli): attenuated | hyaline membrane formation (histopathology) (E. coli; lungs at euthanasia or day 7): absence of hyaline membrane formation | intrapulmonary hemorrhage (histopathology) (E. coli; lungs at euthanasia or day 7): decreased intrapulmonary hemorrhage | plasma MCP-1 [3, 4]: significantly reduced | plasma MIP-1 alpha [3, 4]: significantly reduced | Hypoxia inducible factor-2 Alpha (HIF2-ALPHA) gene transcript in PBMC [3, 5]: decreased | Nuclear receptor subfamily 4, group A, member 3 (NR4A3) gene transcript in PBMC [3, 5]: decreased | early growth response 3 (EGR-3) gene transcript in PBMC [3, 5]: decreased | animals alive (survival) at 7 days (S. pneumoniae): 20%

C=Cc1cc(O)cc2nc(-c3ccc(O)c(F)c3)oc12 [Compound 2, 2-(3-fluoro-4-hydroxyphenyl)-7-vinyl-1,3-benzoxazol-5-ol]
animals alive (survival) at 7 days (S. pneumoniae): 60%
